Values joined by “and” are separate entries in the source; they are usually repeats but may differ in a detail not shown here. Equal entries are not always repeated. Blank lines part the entries; values can stand above or below the molecule they belong to.
What was measured:
Test in all cases: KINOMEscan competition binding
Conditions in all cases: compound 10.0 µM
[1] = molecular target: MARK2 (human) (UniProt Q7KZI7)
[2] = molecular target: PRKAA2 (human) (UniProt P54646)
[3] = molecular target: MAPKAPK5 (human) (UniProt Q8IW41)
[4] = molecular target: STK3 (human) (UniProt Q13188)
[5] = molecular target: MAPK4 (human) (UniProt P31152)
[6] = molecular target: CDC42BPG (human) (UniProt Q6DT37)
[7] = molecular target: FGFR3 (human) (UniProt P22607)
[8] = molecular target: CAMK2B (human) (UniProt Q13554)
[9] = molecular target: MAP2K1 (human) (UniProt Q02750)
[10] = molecular target: EPHB1 (human) (UniProt P54762)
[11] = test system: RET (human), P07949 [V804M]
[12] = molecular target: MAP4K5 (human) (UniProt Q9Y4K4)
[13] = molecular target: PRKD2 (human) (UniProt Q9BZL6)
[14] = molecular target: CAMK2D (human) (UniProt Q13557)
[15] = molecular target: MERTK (human) (UniProt Q12866)
[16] = test system: EGFR (human), P00533 [L861Q]
[17] = molecular target: AKT1 (human) (UniProt P31749)
[18] = molecular target: STK32B (human) (UniProt Q9NY57)
[19] = molecular target: CSF1R (human) (UniProt P07333)
[20] = molecular target: KDR (human) (UniProt P35968)
[21] = molecular target: MAPK13 (human) (UniProt O15264)
[22] = molecular target: PIK3C2B (human) (UniProt O00750)
[23] = molecular target: JAK2 JH1 catalytic (human) (UniProt O60674)
[24] = test system: ABL1 (human), P00519 [Y253F]
[25] = test system: EGFR (human), P00533 [L858R]
[26] = molecular target: CDK5 (human) (UniProt Q00535)
[27] = test system: EGFR (human), P00533 [752-759 del]
[28] = molecular target: RAF1 (human) (UniProt P04049)
[29] = molecular target: GSK3B (human) (UniProt P49841)
[30] = molecular target: EGFR (human) (UniProt P00533)
[31] = molecular target: TIE1 (human) (UniProt P35590)
[32] = molecular target: CDK9 (human) (UniProt P50750)
[33] = molecular target: DDR2 (human) (UniProt Q16832)
[34] = molecular target: FRK (human) (UniProt P42685)
[35] = molecular target: EIF2AK2 (human) (UniProt P19525)
[36] = molecular target: SRC (human) (UniProt P12931)
[37] = molecular target: NUAK2 (human) (UniProt Q9H093)
[38] = molecular target: MST1R (human) (UniProt Q04912)
[39] = molecular target: ULK1 (human) (UniProt O75385)
[40] = molecular target: PKN2 (human) (UniProt Q16513)
[41] = molecular target: CDK18 (human) (UniProt Q07002)
[42] = molecular target: SIK2 (human) (UniProt Q9H0K1)

PKN2 (human), sequence (Q16513 whole entry, looked up): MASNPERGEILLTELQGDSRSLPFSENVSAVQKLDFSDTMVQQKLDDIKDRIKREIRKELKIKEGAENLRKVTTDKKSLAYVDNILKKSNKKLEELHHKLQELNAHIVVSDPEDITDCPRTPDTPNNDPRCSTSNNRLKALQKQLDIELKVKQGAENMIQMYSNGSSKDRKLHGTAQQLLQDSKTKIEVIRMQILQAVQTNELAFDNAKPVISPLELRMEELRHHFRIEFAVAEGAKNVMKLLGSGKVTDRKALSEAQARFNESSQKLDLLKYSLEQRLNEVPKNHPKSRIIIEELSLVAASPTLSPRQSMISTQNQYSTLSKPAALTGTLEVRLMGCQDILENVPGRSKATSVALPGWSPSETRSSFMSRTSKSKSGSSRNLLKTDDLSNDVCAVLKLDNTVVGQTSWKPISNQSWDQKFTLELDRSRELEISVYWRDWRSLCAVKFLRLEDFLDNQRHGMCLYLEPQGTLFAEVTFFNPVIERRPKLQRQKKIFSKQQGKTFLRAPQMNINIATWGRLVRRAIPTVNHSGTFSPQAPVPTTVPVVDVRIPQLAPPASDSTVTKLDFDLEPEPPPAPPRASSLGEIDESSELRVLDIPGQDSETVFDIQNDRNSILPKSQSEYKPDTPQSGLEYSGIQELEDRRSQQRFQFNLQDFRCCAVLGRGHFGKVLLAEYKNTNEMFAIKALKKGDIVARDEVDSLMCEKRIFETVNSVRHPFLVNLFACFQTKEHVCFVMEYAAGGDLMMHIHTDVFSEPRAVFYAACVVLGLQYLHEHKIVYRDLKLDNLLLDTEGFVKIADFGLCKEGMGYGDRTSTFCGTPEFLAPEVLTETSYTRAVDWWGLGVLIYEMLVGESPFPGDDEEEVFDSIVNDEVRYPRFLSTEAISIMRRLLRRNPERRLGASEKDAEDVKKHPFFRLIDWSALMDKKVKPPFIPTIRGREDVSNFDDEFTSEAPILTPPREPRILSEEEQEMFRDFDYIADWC
NUAK2 (human), sequence (Q9H093 whole entry, looked up): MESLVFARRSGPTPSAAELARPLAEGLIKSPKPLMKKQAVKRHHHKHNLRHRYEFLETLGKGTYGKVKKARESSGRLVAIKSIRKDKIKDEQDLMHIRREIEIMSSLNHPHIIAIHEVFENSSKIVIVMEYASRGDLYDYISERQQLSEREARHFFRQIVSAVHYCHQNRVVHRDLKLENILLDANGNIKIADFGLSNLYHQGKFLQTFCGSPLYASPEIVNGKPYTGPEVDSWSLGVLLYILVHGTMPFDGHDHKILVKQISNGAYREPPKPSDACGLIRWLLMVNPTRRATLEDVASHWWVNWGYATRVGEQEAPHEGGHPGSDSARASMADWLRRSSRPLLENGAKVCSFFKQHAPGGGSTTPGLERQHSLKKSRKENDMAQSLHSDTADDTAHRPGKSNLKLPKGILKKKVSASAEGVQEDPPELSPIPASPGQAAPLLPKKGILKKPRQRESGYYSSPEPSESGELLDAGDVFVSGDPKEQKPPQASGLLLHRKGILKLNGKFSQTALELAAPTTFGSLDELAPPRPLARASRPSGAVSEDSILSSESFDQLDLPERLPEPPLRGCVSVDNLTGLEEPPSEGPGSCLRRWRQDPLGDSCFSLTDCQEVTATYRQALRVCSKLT
FRK (human), sequence (P42685 whole entry, looked up): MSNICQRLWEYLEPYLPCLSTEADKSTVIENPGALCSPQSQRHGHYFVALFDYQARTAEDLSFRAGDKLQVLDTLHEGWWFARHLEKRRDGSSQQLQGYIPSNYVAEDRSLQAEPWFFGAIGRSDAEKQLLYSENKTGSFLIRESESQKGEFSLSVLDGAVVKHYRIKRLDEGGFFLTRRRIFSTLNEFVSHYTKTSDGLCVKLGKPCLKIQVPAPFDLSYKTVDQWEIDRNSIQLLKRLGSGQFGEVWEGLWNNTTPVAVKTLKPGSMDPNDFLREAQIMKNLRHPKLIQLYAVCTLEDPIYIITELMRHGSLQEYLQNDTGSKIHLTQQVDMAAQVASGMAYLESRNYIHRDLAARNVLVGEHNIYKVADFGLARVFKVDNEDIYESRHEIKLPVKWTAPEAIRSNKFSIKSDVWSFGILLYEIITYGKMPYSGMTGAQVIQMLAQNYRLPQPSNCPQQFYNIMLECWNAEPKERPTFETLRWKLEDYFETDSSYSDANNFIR
MAPK4 (human), sequence (P31152 whole entry, looked up): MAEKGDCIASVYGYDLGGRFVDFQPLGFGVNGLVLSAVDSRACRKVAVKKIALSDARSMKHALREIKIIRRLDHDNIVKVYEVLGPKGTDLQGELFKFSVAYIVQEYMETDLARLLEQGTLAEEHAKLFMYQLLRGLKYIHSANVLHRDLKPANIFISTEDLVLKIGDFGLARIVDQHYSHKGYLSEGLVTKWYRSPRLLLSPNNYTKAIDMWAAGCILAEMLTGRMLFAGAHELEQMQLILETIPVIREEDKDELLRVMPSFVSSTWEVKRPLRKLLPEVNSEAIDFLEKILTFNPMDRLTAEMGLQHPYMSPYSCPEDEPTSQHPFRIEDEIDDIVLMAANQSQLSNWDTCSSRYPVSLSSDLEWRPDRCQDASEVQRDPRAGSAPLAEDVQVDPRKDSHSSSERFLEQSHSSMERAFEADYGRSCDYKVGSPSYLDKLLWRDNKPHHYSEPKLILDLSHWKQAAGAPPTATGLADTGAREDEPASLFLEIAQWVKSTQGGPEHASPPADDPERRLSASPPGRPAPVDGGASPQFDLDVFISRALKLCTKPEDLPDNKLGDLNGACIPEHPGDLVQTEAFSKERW
CDK18 (human), sequence (Q07002 whole entry, looked up): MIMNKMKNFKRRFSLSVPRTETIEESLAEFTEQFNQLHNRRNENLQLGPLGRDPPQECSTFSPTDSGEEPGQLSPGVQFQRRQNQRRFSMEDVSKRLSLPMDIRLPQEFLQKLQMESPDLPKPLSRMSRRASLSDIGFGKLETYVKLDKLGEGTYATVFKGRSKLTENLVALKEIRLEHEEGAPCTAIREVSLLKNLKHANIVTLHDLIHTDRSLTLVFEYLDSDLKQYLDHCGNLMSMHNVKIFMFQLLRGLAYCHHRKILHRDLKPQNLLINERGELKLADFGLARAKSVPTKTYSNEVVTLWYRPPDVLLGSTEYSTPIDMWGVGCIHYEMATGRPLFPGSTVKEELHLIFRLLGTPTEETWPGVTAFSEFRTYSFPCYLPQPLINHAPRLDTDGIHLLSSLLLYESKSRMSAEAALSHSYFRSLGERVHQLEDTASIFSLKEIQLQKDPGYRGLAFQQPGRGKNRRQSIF
TIE1 (human), sequence (P35590 whole entry, looked up): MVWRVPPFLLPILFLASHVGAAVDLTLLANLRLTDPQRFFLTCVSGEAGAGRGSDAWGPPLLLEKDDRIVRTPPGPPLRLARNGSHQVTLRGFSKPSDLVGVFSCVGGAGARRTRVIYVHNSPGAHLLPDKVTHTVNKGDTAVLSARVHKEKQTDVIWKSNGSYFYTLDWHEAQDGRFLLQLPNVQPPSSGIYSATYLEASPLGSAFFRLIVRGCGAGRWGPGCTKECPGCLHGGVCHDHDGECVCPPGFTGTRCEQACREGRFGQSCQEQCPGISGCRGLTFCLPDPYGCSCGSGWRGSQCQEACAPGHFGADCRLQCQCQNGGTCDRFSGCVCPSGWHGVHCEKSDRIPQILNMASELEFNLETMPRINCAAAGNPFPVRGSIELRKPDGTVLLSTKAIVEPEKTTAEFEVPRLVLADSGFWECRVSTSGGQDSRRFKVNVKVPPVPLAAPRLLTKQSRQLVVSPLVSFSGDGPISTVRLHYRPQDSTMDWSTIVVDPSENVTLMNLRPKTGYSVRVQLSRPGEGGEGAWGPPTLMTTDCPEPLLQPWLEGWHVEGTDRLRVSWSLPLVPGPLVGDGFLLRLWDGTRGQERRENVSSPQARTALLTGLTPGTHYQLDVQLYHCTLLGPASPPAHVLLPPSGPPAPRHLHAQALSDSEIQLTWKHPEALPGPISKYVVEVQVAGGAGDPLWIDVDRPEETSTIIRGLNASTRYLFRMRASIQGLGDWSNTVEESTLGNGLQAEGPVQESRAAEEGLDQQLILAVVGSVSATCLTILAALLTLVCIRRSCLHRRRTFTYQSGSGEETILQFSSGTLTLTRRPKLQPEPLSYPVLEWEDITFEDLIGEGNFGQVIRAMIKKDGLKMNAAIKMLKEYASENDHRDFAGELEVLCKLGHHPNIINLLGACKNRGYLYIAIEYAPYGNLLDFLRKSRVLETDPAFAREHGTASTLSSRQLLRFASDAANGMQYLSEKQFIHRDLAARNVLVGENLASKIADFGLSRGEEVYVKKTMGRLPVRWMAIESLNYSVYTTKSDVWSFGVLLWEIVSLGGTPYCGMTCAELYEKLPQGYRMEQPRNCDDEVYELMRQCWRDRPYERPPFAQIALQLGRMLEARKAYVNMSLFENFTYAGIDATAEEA
PRKAA2 (human), sequence (P54646 whole entry, looked up): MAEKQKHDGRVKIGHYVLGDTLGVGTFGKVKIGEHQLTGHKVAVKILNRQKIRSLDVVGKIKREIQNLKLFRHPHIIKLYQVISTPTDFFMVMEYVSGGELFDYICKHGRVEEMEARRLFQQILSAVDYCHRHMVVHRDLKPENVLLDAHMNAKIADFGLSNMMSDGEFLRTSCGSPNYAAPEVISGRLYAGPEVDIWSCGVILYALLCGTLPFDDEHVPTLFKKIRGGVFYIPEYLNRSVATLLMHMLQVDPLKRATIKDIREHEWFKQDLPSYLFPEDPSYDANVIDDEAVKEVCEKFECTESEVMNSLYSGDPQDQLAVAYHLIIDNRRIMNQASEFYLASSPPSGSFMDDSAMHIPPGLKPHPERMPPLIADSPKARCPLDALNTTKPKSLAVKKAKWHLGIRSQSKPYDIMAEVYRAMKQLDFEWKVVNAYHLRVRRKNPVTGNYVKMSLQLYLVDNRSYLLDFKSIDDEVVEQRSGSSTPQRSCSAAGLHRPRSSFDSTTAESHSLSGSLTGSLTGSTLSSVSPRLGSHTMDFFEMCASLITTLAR

- kinase still bound, per cent of control [1]: 100%
- kinase still bound, per cent of control [2]: 100%
- kinase still bound, per cent of control [3]: 63%
- kinase still bound, per cent of control [4]: 82%
- kinase still bound, per cent of control [5]: 100%
- kinase still bound, per cent of control [6]: 100%
- kinase still bound, per cent of control [7]: 100%
- kinase still bound, per cent of control [8]: 98%
- kinase still bound, per cent of control [9]: 100%
- kinase still bound, per cent of control [10]: 100%
- kinase still bound, per cent of control [11]: 100%
- kinase still bound, per cent of control [12]: 100%
- kinase still bound, per cent of control [13]: 100%
- kinase still bound, per cent of control [14]: 100%
- kinase still bound, per cent of control [15]: 100%
- kinase still bound, per cent of control [16]: 88%
- kinase still bound, per cent of control [17]: 100%
- kinase still bound, per cent of control [18]: 100%
- kinase still bound, per cent of control [19]: 71%
- kinase still bound, per cent of control [20]: 86%
- kinase still bound, per cent of control [21]: 90%
- kinase still bound, per cent of control [22]: 99%
- kinase still bound, per cent of control [23]: 6.2%
- kinase still bound, per cent of control [24]: 100%
- kinase still bound, per cent of control [25]: 100%
- kinase still bound, per cent of control [26]: 100%
- kinase still bound, per cent of control [27]: 100%
- kinase still bound, per cent of control [28]: 100%
- kinase still bound, per cent of control [29]: 79%
- kinase still bound, per cent of control [30]: 100%
- kinase still bound, per cent of control [31]: 100%
- kinase still bound, per cent of control [32]: 100%
- kinase still bound, per cent of control [33]: 100%
- kinase still bound, per cent of control [34]: 100%
- kinase still bound, per cent of control [35]: 100%
- kinase still bound, per cent of control [36]: 100%
- kinase still bound, per cent of control [37]: 100%
- kinase still bound, per cent of control [38]: 93%
- kinase still bound, per cent of control [39]: 78%
- kinase still bound, per cent of control [40]: 78%
- kinase still bound, per cent of control [41]: 100%
- kinase still bound, per cent of control [42]: 78%
Structure (SMILES): CN1CCN(c2ccc(C(=O)Nc3ncc4c(n3)N(C)c3ccccc3C(=O)N4C)cc2)CC1

- kinase still bound, per cent of control [1]: 51%
- kinase still bound, per cent of control [2]: 31%
- kinase still bound, per cent of control [3]: 92%
- kinase still bound, per cent of control [4]: 27%
- kinase still bound, per cent of control [5]: 100%
- kinase still bound, per cent of control [6]: 100%
- kinase still bound, per cent of control [7]: 62%
- kinase still bound, per cent of control [8]: 100%
- kinase still bound, per cent of control [9]: 100%
- kinase still bound, per cent of control [10]: 100%
- kinase still bound, per cent of control [11]: 3%
- kinase still bound, per cent of control [12]: 85%
- kinase still bound, per cent of control [13]: 99%
- kinase still bound, per cent of control [14]: 88%
- kinase still bound, per cent of control [15]: 100%
- kinase still bound, per cent of control [16]: 100%
- kinase still bound, per cent of control [17]: 100%
- kinase still bound, per cent of control [18]: 100%
- kinase still bound, per cent of control [19]: 5.8%
- kinase still bound, per cent of control [20]: 97%
- kinase still bound, per cent of control [21]: 100%
- kinase still bound, per cent of control [22]: 89%
- kinase still bound, per cent of control [23]: 1.3%
- kinase still bound, per cent of control [24]: 1.9%
- kinase still bound, per cent of control [25]: 93%
- kinase still bound, per cent of control [26]: 100%
- kinase still bound, per cent of control [27]: 92%
- kinase still bound, per cent of control [28]: 100%
- kinase still bound, per cent of control [29]: 88%
- kinase still bound, per cent of control [30]: 100%
- kinase still bound, per cent of control [31]: 59%
- kinase still bound, per cent of control [32]: 100%
- kinase still bound, per cent of control [33]: 96%
- kinase still bound, per cent of control [34]: 70%
- kinase still bound, per cent of control [35]: 100%
- kinase still bound, per cent of control [36]: 21%
- kinase still bound, per cent of control [37]: 23%
- kinase still bound, per cent of control [38]: 94%
- kinase still bound, per cent of control [39]: 16%
- kinase still bound, per cent of control [40]: 92%
- kinase still bound, per cent of control [41]: 100%
- kinase still bound, per cent of control [42]: 61%
Structure (SMILES): CN1C(=O)c2ccccc2N(C)c2nc(Nc3ccc(N4CCC(O)CC4)cc3)ncc21

- kinase still bound, per cent of control [1]: 97%
- kinase still bound, per cent of control [2]: 100%
- kinase still bound, per cent of control [3]: 95%
- kinase still bound, per cent of control [4]: 84%
- kinase still bound, per cent of control [5]: 100%
- kinase still bound, per cent of control [6]: 100%
- kinase still bound, per cent of control [7]: 100%
- kinase still bound, per cent of control [8]: 72%
- kinase still bound, per cent of control [9]: 100%
- kinase still bound, per cent of control [10]: 99%
- kinase still bound, per cent of control [11]: 93%
- kinase still bound, per cent of control [12]: 99%
- kinase still bound, per cent of control [13]: 45%
- kinase still bound, per cent of control [14]: 65%
- kinase still bound, per cent of control [15]: 100%
- kinase still bound, per cent of control [16]: 64%
- kinase still bound, per cent of control [17]: 100%
- kinase still bound, per cent of control [18]: 100%
- kinase still bound, per cent of control [19]: 67%
- kinase still bound, per cent of control [20]: 79%
- kinase still bound, per cent of control [21]: 87%
- kinase still bound, per cent of control [22]: 100%
- kinase still bound, per cent of control [23]: 69%
- kinase still bound, per cent of control [24]: 100%
- kinase still bound, per cent of control [25]: 88%
- kinase still bound, per cent of control [26]: 86%
- kinase still bound, per cent of control [27]: 81%
- kinase still bound, per cent of control [28]: 98%
- kinase still bound, per cent of control [29]: 91%
- kinase still bound, per cent of control [30]: 59% and 83%
- kinase still bound, per cent of control [31]: 94%
- kinase still bound, per cent of control [32]: 100%
- kinase still bound, per cent of control [33]: 90%
- kinase still bound, per cent of control [34]: 81%
- kinase still bound, per cent of control [35]: 48%
- kinase still bound, per cent of control [36]: 100%
- kinase still bound, per cent of control [37]: 60%
- kinase still bound, per cent of control [38]: 82%
- kinase still bound, per cent of control [39]: 78%
- kinase still bound, per cent of control [40]: 100%
- kinase still bound, per cent of control [41]: 100%
- kinase still bound, per cent of control [42]: 100%
Structure (SMILES): COc1cc(N2CCC(O)CC2)ccc1Nc1ncc2c(n1)N1CCc3cccc(c31)C(=O)N2C

Source: the kinase profiling compilation of Christmann-Franck et al. (2016)
